Assay type in all cases: biochemical
Test [1] addresses T1, porcine heart citrate synthase (CS) (Sus scrofa, UniProt P00889).
T1 construct: porcine heart citrate synthase (CS); from tissue; host or cells: porcine heart
T1 sequence (P00889 28-464): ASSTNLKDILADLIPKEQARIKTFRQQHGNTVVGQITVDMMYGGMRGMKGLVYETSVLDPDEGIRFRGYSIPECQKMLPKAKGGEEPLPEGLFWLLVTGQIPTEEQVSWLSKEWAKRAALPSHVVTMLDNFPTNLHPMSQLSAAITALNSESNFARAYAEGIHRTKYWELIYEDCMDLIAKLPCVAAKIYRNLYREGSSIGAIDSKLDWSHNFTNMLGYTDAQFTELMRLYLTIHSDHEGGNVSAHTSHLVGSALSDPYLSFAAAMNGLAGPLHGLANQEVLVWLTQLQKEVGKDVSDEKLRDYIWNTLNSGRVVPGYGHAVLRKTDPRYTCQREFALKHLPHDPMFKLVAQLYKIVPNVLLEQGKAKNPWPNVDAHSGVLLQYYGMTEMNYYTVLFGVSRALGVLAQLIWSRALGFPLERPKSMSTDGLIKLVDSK
Kind of test: Citrate synthase thermal aggregation (turbidity at 360 nm). Particulars: for inhibition index: CS 96 μg/mL, 45° C., standard deviation in parenthesis. The method, then: (§1) Bovine insulin [Sigma, St. Louis, Mo., USA] was dissolved in phosphate saline (PBS) (50 mM sodium biphosphate, 100 mM sodium chloride), pH 7.0, bovine alpha-lactalbumin [Sigma] in 50 mM sodium phosphate, 100 mM sodium chloride and 2 mM EDTA, pH 6.2, chicken egg white lysozyme [Sigma] in 100 mM Tris, 1 mM EDTA, pH 8.2, human acidic fibroblast growth factor (FGF-1) in 6.2 mM sodium biphosphate, 120 mM sodium chloride, pH 7.2, porcine somatotropin (pST) [provided by Pfizer, Inc., Groton, Conn., USA] in 10 mM phosphate, pH 6. 1, human apolactoferrin (HLF) [Sigma] in 20 mM HEPES, 154 mM NaCl, pH 7.4, porcine heart citrate synthase (CS) in 40 mM HEPES, 50 mM KCl, 10 mM (NH4)2SO4 mM potassium acetate, pH 7.8, and yeast alcohol dehydrogenase (ADH) [Sigma] in pH 7.0 PBS. Selection of buffer solutions was based on an extensive series of preliminary studies to obtain appropriate insolubilization kinetics as described below.
(§2) The following compounds were obtained from Sigma and used without further purification: oxalic acid, sodium malonate, succinic acid, glutaric acid, adipic acid, pimelic acid, suberic acid, azelaic acid, guanidine hydrochloride, ammonium formate, beta-alanine, 4-aminobutyric acid, 5-aminovaleric acid, 6-aminocaproic acid, 7-aminoheptanoic acid, hydrazine, ethylenediamine, 1,3-diaminopropane, 1,4-diaminobutane, 1,5-diaminopentane, 1,6-diaminohexane, 1,7-diaminoheptane, Glu-Glu, Glu-Lys, Lys-Lys, diglycine, triglycine, tetraglycine, pentaglycine, and hexaglycine. […] Triglycine and tetraglycine were dissolved in pH 8.6 PBS, while pentaglycine and hexaglycine were dissolved in pH 10.6 PBS.
(§3) Each was either dissolved in pH 7.0 PBS, or pH 6.1 10 mM phosphate, and adjusted to the same pH.
(§4) Protein aggregation was monitored for 1 hour at 360 nm using an HP8453 UV-visible spectrophotometer system [Hewlett Packard, Germany]. […] Insulin (0.25 mg/mL (4.39E-5 M)) aggregation was monitored at 25° C. after addition of potential inhibitors and 20 μL of 1 M DTT (1.27E-4 M). Alpha-lactabumin (0.4 mg/mL (2.82E-5 M)) aggregation was monitored at 37° C. in the presence of 20 μL of 1 M DTT (1.27E-4 M). Lysozyme (0.4 mg/mL (2.86E-5 M)) aggregation was monitored at 25° C. in the presence of 20 μL of 1 M DTT (1.27E-4 M). FGF-1 (50 μg/mL (3.12E-6 M)) aggregation was monitored at 50° C. Porcine somatotropin (1.27 mg/mL (5.76E-5 M)) aggregation was monitored at 60° C. in the presence of PEG 8000 (20 mg/mL) which was included to enhance the protein association process through a simple exclusion volume effect. HLF (0.4 mg/mL (5.23E-6 M)) aggregation was monitored at 43° C. in the presence of 1.27E-4 M DTT. Citrate synthase (96 μg/mL (9.80E-7 M)) aggregation was monitored at45° C. ADH (1 mg/mL (7.14E-6 M)) was monitored at 37° C. following the addition of 7.76E-5 M Cu(OP)2. Aggregation was compared to protein in the absence of the particular dipolar compound. After stirring, experiments were initiated by the addition of proteins followed by stressing reagents to 1 cm pathlength cuvettes employing a seven-position thermostatted sample holder that was cycled at 30-second intervals. Alternatively, a microtiter plate reader was employed under the same conditions in a 96 well format.
(§5) All optical density (OD)360nm versus time results were exported into Excel [Microsoft] for data analysis. […] The maximum rate of change in OD versus time plots (r) was used to determine the rate of the reaction from the slope at this point.

Test [2] has as its target human acidic fibroblast growth factor (FGF-1) (Homo sapiens, UniProt P05230). Kind of test: FGF-1 thermal aggregation (turbidity at 360 nm). Particulars: FGF-1 50 μg/mL, 50° C., standard deviation in parenthesis. How it is done:
as §1, §2, §3, §4, §5

The target in test [3] is T2, yeast alcohol dehydrogenase (ADH) (Saccharomyces cerevisiae, UniProt P00330).
T2 construct: purchased Sigma
T2 sequence (P00330 2-348 limits assumed): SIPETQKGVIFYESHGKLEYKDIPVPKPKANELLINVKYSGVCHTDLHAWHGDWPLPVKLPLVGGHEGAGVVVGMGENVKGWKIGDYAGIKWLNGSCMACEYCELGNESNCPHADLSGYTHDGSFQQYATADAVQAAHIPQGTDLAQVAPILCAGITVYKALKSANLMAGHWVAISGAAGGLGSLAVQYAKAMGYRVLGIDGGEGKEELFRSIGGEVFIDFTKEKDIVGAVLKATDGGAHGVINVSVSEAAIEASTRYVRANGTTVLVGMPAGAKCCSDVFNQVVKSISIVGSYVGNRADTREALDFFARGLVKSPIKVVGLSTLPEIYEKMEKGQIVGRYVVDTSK
Kind of test: ADH oxidation-induced aggregation (turbidity at 360 nm), Cu(OP)2. Particulars: for inhibition index: ADH 1 mg/mL, 37° C., Cu(OP)2. The method, then:
as §1
(§6) Copper O-phenanthroline (1,10-phenanthroline) was prepared by mixing copper sulfate hexahydrate [Fisher] and o-phenanthroline [Sigma] in a 1:2 ratio. 1 M Dithiothreitol (DTT) was prepared at pH 7.0 PBS. Polyethylene glycol (M.W. 8000, Union Carbide, Danbury, Conn., USA) (PEG) was prepared at 20 mg/mL in 10 mM phosphate, pH 6.1.
as §2, §3, §4
(§7) All optical density (OD)360nm versus time results were exported into Excel [Microsoft] for data analysis.

In test [4] the target is T3, chicken egg white lysozyme (Gallus gallus, UniProt P00698).
T3 construct: chicken egg white lysozyme [Sigma]; purchased Sigma; host or cells: egg white
Kind of test: Lysozyme aggregation (turbidity at 360 nm) induced by DTT. Particulars: Lysozyme 0.4 mg/mL, 25° C., DTT; compound 1,000×; standard deviation in parenthesis. How it is done:
as §1, §6, §2, §3, §4, §7

Test [5] has as its target T4, human apolactoferrin (HLF) (Homo sapiens, UniProt P02788).
T4 construct: purchased Sigma
Kind of test: HLF aggregation (turbidity at 360 nm) induced by DTT. Particulars: HLF 0.4 mg/mL, 43° C., DTT, head 10,000×, standard deviation in parenthesis. How it is done:
as §1, §6, §2, §3, §4, §7

A further test has as its target T5, bovine alpha-lactalbumin (Bos taurus, UniProt P00711).
T5 construct: purchased Sigma
T5 sequence (P00711 20-142): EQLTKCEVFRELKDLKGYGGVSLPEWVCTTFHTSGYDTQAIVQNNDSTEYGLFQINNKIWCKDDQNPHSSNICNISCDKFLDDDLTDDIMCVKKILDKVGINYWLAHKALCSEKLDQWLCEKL
Kind of test: Alpha-lactalbumin aggregation (turbidity at 360 nm) induced by DTT. As to conditions: α Lactalbumin 0.4 mg/mL, 37° C., DTT; compound 1,000×; standard deviation in parenthesis. The method, then: as §1, §6, §2, §3, §4, §7

For another test, the target named is T6, Bovine insulin (Bos taurus, UniProt P01317).
T6 construct: purchased Sigma, St. Louis, Mo., USA
Kind of test: Insulin aggregation (turbidity at 360 nm) induced by DTT. As to conditions: Insulin 0.25 mg/mL, 25° C., DTT; compound 100×; standard deviation in parenthesis. The method, then: as §1, §6, §2, §3, §4, §7

The target in test [6] is T7, porcine somatotropin (pST) (Sus scrofa, UniProt P01248).
T7 construct: purchased Pfizer, Inc., Groton, Conn., USA (provided, not bought)
T7 sequence (P01248 27-216): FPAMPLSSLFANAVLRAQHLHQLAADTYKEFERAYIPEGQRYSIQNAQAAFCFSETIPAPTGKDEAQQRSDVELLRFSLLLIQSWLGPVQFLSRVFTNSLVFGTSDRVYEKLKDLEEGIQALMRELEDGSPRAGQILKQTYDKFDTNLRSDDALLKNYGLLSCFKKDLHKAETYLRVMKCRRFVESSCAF
Kind of test: Porcine somatotropin aggregation (turbidity at 360 nm) with PEG 8000. Particulars: pST 1.27 mg/mL, 60° C., standard deviation in parenthesis. The method, then:
as §1, §6, §2, §3, §4, §7

[7] abbreviates: compound 1,000X, standard deviation in parenthesis.
The mark [8] stands for this setting: compound 10,000X molar excess, Infinite = complete inhibition of aggregation over one hour.

The values that follow come from patent US20030125234A1, “Alteration of protein stability” (priority 2001, published 2003).

Sequence of human acidic fibroblast growth factor (FGF-1) (P05230 whole entry): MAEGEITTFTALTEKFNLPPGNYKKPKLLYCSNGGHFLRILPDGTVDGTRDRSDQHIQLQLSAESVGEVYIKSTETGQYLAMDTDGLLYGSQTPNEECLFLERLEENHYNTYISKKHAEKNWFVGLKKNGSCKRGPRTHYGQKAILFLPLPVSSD
T6 sequence (P01317 25-54 limits assumed): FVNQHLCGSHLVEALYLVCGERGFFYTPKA
T6 sequence (P01317 85-105 limits assumed): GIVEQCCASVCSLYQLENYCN
T3 sequence (P00698 19-147): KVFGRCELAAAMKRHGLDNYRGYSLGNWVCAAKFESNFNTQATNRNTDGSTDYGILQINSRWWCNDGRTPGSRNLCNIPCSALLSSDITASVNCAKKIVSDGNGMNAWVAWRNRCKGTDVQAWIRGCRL
T4 sequence (P02788 20-710): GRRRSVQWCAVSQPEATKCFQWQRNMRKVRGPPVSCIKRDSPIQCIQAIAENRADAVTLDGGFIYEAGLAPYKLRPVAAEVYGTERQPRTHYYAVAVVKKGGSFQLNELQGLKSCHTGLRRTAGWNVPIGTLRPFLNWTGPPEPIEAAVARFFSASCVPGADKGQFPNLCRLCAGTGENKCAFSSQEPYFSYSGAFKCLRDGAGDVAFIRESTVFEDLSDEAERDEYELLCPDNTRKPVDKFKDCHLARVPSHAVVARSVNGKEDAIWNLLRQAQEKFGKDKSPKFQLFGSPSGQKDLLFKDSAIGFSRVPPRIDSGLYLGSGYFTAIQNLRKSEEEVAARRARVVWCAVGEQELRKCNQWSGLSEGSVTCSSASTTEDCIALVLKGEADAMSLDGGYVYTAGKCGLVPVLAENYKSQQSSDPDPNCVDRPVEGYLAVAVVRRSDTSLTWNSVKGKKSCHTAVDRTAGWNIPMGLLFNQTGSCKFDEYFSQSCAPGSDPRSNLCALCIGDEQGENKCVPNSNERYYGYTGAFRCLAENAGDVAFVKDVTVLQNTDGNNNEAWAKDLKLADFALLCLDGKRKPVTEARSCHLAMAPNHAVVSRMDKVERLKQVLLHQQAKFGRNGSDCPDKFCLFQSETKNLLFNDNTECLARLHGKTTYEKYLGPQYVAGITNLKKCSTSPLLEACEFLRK

On to Glu-Lys, for which the “inhibition of citrate synthase aggregation, in words” value in test [1] is given as “Potent inhibitors”. In addition, the inhibition index in test [1] (compound 1,000X) is reported as 0.8 (0.2); in test [1] (compound 10,000X) it was 1.6 (0.2); in test [1] (compound 50,000X), 21.5; in test [2] (compound 1,000×), 1.6 (0.3); in test [2] (compound 10,000×), 11.0 (3.0); in test [3] (setting [7]), 1.7 (0.1). The inhibition index in test [3] (setting [8]) is recorded as 18.4; in test [4], 1.0 (0.4); in test [5] (first HLF column) it was 9.8 (0.3); in test [5] (second HLF column), 44.5; on bovine alpha-lactalbumin, 1.0 (0.1); at Bovine insulin it was 1.0 (0.1).

In the case of “^+NH3-(Lys)^+-(Gly)n-(Lys)^+-CONH2 [^+NH3—(K)^+—(G)1—(K)^+—CONH2]”, the inhibition index was 1.0 (0.3) in test [1] (compound 1,000X); 2.3 (0.4) in test [2] (compound 1,000×); 1.2 (0.1) in test [3] (setting [7]); 0.9 (0.2) in test [4]; 1.5 (0.2) in test [5] (first HLF column); 0.5 (0.2) on bovine alpha-lactalbumin. For the same molecule, on Bovine insulin, the inhibition index was 0.9 (0.1).

As for “CH3—NH2-(Glu)^−-(Gly)n-(Glu)^−-COO^− [CH3—NH2—(E)^−—(G)5—(E)^−—COO^−]”, the inhibition index is given as 0.6 (0.1) in test [1] (compound 1,000X); 12.3 (0.4) in test [2] (compound 1,000×); 1.2 (0.1) in test [3] (setting [7]); 0.1 (0.1) in test [4]; 1.6 (0.1) in test [5] (first HLF column); 1.3 (0.1) at Bovine insulin.

On to “CH3—NH2-(Glu)^−-(Gly)n-(Glu)^−-COO^− [CH3—NH2—(E)^−—(G)4—(E)^−—COO^−]”, for which the inhibition index is listed as 0.7 (0.1) in test [1] (compound 1,000X); 1.6 (0.2) in test [2] (compound 1,000×); 1.4 (0.1) in test [3] (setting [7]); 0.9 (0.3) in test [4]; 1.7 (0.3) in test [5] (first HLF column); 0.7 (0.4) at bovine alpha-lactalbumin. The inhibition index on Bovine insulin is 1.4 (0.6).

`N.O=CO` [ammonium formate]: the inhibition index in test [1] (compound 10,000X) is given as 0.6 (0.0); in test [1] (compound 50,000X) it was 1.2 (0.3); in test [2] (compound 1,000×) it was 0.9 (0.1); in test [2] (compound 10,000×), 1.3 (0.3); in test [3] (setting [8]), 1.2 (0.1); in test [4], 1.5 (0.3). Also, the values for the inhibition index (in test [5] (second HLF column); at bovine alpha-lactalbumin; at Bovine insulin) were 5.8 (1.1), 0.8 (0.3) and 1.2 (0.5), respectively.

As to `O=C(O)CCCCCCCC(=O)O` [azelaate, azelaic acid], the inhibition index was 0.7 (0.6) in test [1] (compound 10,000X); 4.4 (1.8) in test [1] (compound 50,000X); 0.6 (0.0) in test [6] (compound 100X); 1.3 (0.3) in test [6] (compound 2,000X); 1.9 (0.2) in test [2] (compound 1,000×); 6.1 (2.6) in test [2] (compound 10,000×). For the same molecule, the inhibition index in test [4] is recorded as 1.0 (0.2); in test [5] (second HLF column), 1455.0; on bovine alpha-lactalbumin, 2.3 (0.6); at Bovine insulin, 1.5 (0.4).

For “^+NH3-(Lys)^+-(Gly)n-(Lys)^+-CONH2 [^+NH3—(K)^+—(G)3—(K)^+—CONH2]”, the inhibition index in test [1] (compound 1,000X) was 0.6 (0.1); in test [2] (compound 1,000×), 1.5 (0.4); in test [3] (setting [7]), 1.2 (0.1); in test [4], 1.2 (0.7); in test [5] (first HLF column) it was 2.1 (0.1); at bovine alpha-lactalbumin, 0.8 (0.1). At Bovine insulin, the inhibition index is 0.9 (0.3).

On to `[Cl-].[Na+]` [NaCl], for which the “inhibition of ADH aggregation, in words” value in test [3] (FIG. 1) was “negligible effect on aggregation”.
